Converted amounts (≈) assume the structure as drawn. Read-outs that look alike come from different tables or passages of the source.
Key:
Format in all cases: cell-based
Fusarium oxysporum (Fo) = test: Minimum inhibitory concentration (MIC) in malt yeast agar, Fusarium oxysporum
In short: (§1)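 Malt yeast agar pH 5.5 + cpd (from 1% soln in acetone/water) at final 500–zero ppm, poured at 48 °C, dried 24 h. Inoculum: 7-day 30 °C slants suspended in saline/octylphenoxy polyethoxy ethanol, diluted 1:9, replicator-spotted. Incubated 30 °C; read 48 h yeast, 72 h fungi.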

Aspergillus niger (An) = test: Minimum inhibitory concentration (MIC) in malt yeast agar, Aspergillus niger
In short: as §1

[1] = system: Penicillium chrysogenum (Pc); test: Minimum inhibitory concentration (MIC) in malt yeast agar, Penicillium chrysogenum
In short: as §1

[2] = system: Staphylococcus aureus (Sa); test: Minimum inhibitory concentration (MIC) in nutrient agar, Staphylococcus aureus
In short: (§2)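 Neutral (pH 6.8) and alkaline (pH 8.2) nutrient agar plates carrying 1.0–500 ppm compound (final) are replicator-inoculated with each bacterium at 10^8 CFU/mL. After 48 h incubation at 30° C, the lowest compound concentration without growth is recorded.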

[3] = system: Aureobasidium pullulan (Ap); test: Minimum inhibitory concentration (MIC) in malt yeast agar, Aureobasidium pullulan; settings: pH 5.5; malt yeast agar, 30° C.; read-out: Minimum Inhibitory Concentration, Ap
In short: as §1

[4] = system: Saccharomyces cerevisiae (Sc); test: Minimum inhibitory concentration (MIC) in malt yeast agar, Saccharomyces cerevisiae; settings: pH 5.5, malt yeast agar, 30° C., 48 hours for yeast, read-out: Minimum Inhibitory Concentration, SC
In short: (§3)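 Plates of pH 5.5 malt yeast agar carried test compound dispersed from a one percent acetone–water solution, final 500 to zero ppm. After diluted slant-culture suspensions were applied, plates were kept at 30 °C and examined at 72 h for fungi, 48 h for yeast.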

[5] = system: Pseudomonas aeruginosa (PRD-10); test: Minimum inhibitory concentration (MIC) in nutrient agar, Pseudomonas aeruginosa PRD-10; settings: 48 h
In short: as §2

Proteus vulgaris (Pv) = test: Minimum inhibitory concentration (MIC) in nutrient agar, Proteus vulgaris; settings: 48 h
In short: as §2

Bacillus subtilis (Bs) = test: Minimum inhibitory concentration (MIC) in nutrient agar, Bacillus subtilis
In short: as §2

[6] = system: Pseudomonas aeruginosa (Pa); test: Minimum inhibitory concentration (MIC) in nutrient agar, Pseudomonas aeruginosa; settings: 30° C., 48 hours, read-out: Minimum Inhibitory Concentration, Pa
In short: as §2

[7] = system: Salmonella choleraesuis (Se); test: Minimum inhibitory concentration (MIC) in nutrient agar, Salmonella choleraesuis; settings: Salmonella enterica, 48 h
In short: as §2

Trichoderma viride (Tv) = test: Minimum inhibitory concentration (MIC) in malt yeast agar, Trichoderma viride
In short: as §1

Candida albicans (Ca) = test: Minimum inhibitory concentration (MIC) in malt yeast agar, Candida albicans
In short: as §3

[8] = system: Klebsiella pneumoniae (Kp); test: Minimum inhibitory concentration (MIC) in nutrient agar, Klebsiella pneumoniae
In short: as §2

Escherichia coli (Ec) = test: Minimum inhibitory concentration (MIC) in nutrient agar, Escherichia coli
In short: as §2

[9] = system: Enterobacter aerogenes (Ea); test: Minimum inhibitory concentration (MIC) in nutrient agar, Enterobacter aerogenes; settings: Klebsiella aerogenes, 48 h
In short: as §2

[10] = 72 h, pH 5.5, read-out: Minimum Inhibitory Concentration, Fo
[11] = 72 h, pH 5.5, read-out: Minimum Inhibitory Concentration, An
[12] = pH 5.5, malt yeast agar, 30° C., 72 hours for fungi, read-out: Minimum Inhibitory Concentration, PC
[13] = 48 h, pH 8.2, read-out: Minimum Inhibitory Concentration, Sa
[14] = pH 6.8, nutrient agar, 30° C., 48 hours, read-out: Minimum Inhibitory Concentration, Sa
[15] = pH 6.8, read-out: Minimum Inhibitory Concentration, PRD
[16] = pH 8.2, read-out: Minimum Inhibitory Concentration, PRD
[17] = pH 6.8, read-out: Minimum Inhibitory Concentration, Pv
[18] = pH 8.2, read-out: Minimum Inhibitory Concentration, Pv
[19] = 48 h, pH 8.2, read-out: Minimum Inhibitory Concentration, Bs
[20] = pH 6.8, nutrient agar, 30° C., 48 hours, read-out: Minimum Inhibitory Concentration, Bs
[21] = pH 6.8, read-out: Minimum Inhibitory Concentration, SC
[22] = pH 8.2, read-out: Minimum Inhibitory Concentration, SC
[23] = 72 h, pH 5.5, read-out: Minimum Inhibitory Concentration, Tv
[24] = 48 h, pH 5.5, read-out: Minimum Inhibitory Concentration, Ca
[25] = 48 h, pH 8.2, read-out: Minimum Inhibitory Concentration, Kp
[26] = pH 6.8, nutrient agar, 30° C., 48 hours, read-out: Minimum Inhibitory Concentration, Kp
[27] = 48 h, pH 6.8, read-out: Minimum Inhibitory Concentration, Ec
[28] = 48 h, pH 8.2, read-out: Minimum Inhibitory Concentration, Ec
[29] = pH 6.8, read-out: Minimum Inhibitory Concentration, Ea
[30] = pH 8.2, read-out: Minimum Inhibitory Concentration, Ea
[31] = 48 h, pH 6.8, read-out: Minimum Inhibitory Concentration, Bs
[32] = pH 5.5, malt yeast agar, 30° C., 72 hours for fungi, read-out: Minimum Inhibitory Concentration, Fo
[33] = pH 5.5, malt yeast agar, 30° C., 72 hours for fungi, read-out: Minimum Inhibitory Concentration, An
[34] = pH 5.5, malt yeast agar, 30° C., 72 hours for fungi, read-out: Minimum Inhibitory Concentration, Tv
[35] = pH 5.5, malt yeast agar, 30° C., 48 hours for yeast, read-out: Minimum Inhibitory Concentration, Ca

SMILES | MIC [1, 12] [µg/mL] | MIC [2, 13] [µg/mL] | MIC [2, 14] [µg/mL] | MIC [3] [µg/mL] | MIC [4] [µg/mL] | MIC [5, 15] [µg/mL] | MIC [5, 16] [µg/mL] | MIC (Proteus vulgaris (Pv); [17]) [µg/mL] | MIC (Proteus vulgaris (Pv); [18]) [µg/mL] | MIC (Bacillus subtilis (Bs); [19]) [µg/mL] | MIC ([6]; pH 6.8, nutrient agar) [µg/mL] | MIC ([6]; pH 8.2, nutrient agar) [µg/mL] | MIC [7, 21] [µg/mL] | MIC [7, 22] [µg/mL] | MIC [8, 25] [µg/mL] | MIC [8, 26] [µg/mL] | MIC (Escherichia coli (Ec); [27]) [µg/mL] | MIC (Escherichia coli (Ec); [28]) [µg/mL] | MIC [9, 29] [µg/mL] | MIC [9, 30] [µg/mL] | further results
COc1cccc(-c2nsnc2SCSC#N)c1 [Example XXII, 4-(3-Methoxyphenyl)-3-thiocyanatomethylthio-1,2,5-thiadiazole] | 25 (≈ 84.6 µM) | 500 (≈ 1690 µM) | 500 (≈ 1690 µM) | 9 (≈ 30.5 µM) | 9 (≈ 30.5 µM) | 500 (≈ 1690 µM) | > 500 | 500 (≈ 1690 µM) | > 500 | 25 (≈ 84.6 µM) | 500 (≈ 1690 µM) | > 500 | 500 (≈ 1690 µM) | > 500 | > 500 | 500 (≈ 1690 µM) | 500 (≈ 1690 µM) | 500 (≈ 1690 µM) | 500 (≈ 1690 µM) | > 500 | MIC (Fusarium oxysporum (Fo); [10]): 50 µg/mL (≈ 169 µM); MIC (Aspergillus niger (An); [11]): 50 µg/mL (≈ 169 µM); MIC (Bacillus subtilis (Bs); [20]): 9 µg/mL (≈ 30.5 µM); MIC (Trichoderma viride (Tv); [23]): 250 µg/mL (≈ 846 µM); MIC (Candida albicans (Ca); [24]): 250 µg/mL (≈ 846 µM)
COc1ccc(-c2nsnc2SCSC#N)cc1 [Example XXIII, 4-(4-Methoxyphenyl)-3-thiocyanatomethylthio-1,2,5-thiadiazole] |  | > 500 | > 500 | 9 (≈ 30.5 µM) | 9 (≈ 30.5 µM) | > 500 | > 500 | > 500 | > 500 | 250 (≈ 846 µM) | > 500 | > 500 | > 500 | > 500 | > 500 | > 500 | > 500 | > 500 | > 500 | 500 (≈ 1690 µM) | MIC (Fusarium oxysporum (Fo); [10]): 100 µg/mL (≈ 339 µM); MIC (Aspergillus niger (An); [11]): 25 µg/mL (≈ 84.6 µM); MIC ([1]; 72 h, pH 5.5, read-out: Minimum Inhibitory Concentration, PC): 50 µg/mL (≈ 169 µM); MIC (Bacillus subtilis (Bs); [31]): 500 µg/mL (≈ 1690 µM); MIC (Trichoderma viride (Tv); [23]): 250 µg/mL (≈ 846 µM); MIC (Candida albicans (Ca); [24]): 250 µg/mL (≈ 846 µM)
CSc1ccc(-c2nsnc2SCSC#N)cc1 [Example XXIV, 4-(4-Methylthiophenyl)-3-thiocyanatomethylthio-1,2,5-thiadiazole] | 500 (≈ 1610 µM) | > 500 | 500 (≈ 1610 µM) | 500 (≈ 1610 µM) | 500 (≈ 1610 µM) | 500 (≈ 1610 µM) | > 500 | 500 (≈ 1610 µM) | > 500 | 500 (≈ 1610 µM) | 500 (≈ 1610 µM) | > 500 | 500 (≈ 1610 µM) | > 500 | > 500 | 500 (≈ 1610 µM) | 500 (≈ 1610 µM) |  | 500 (≈ 1610 µM) | > 500 | MIC (Fusarium oxysporum (Fo); [32]): 500 µg/mL (≈ 1610 µM); MIC (Aspergillus niger (An); [33]): 500 µg/mL (≈ 1610 µM); MIC (Bacillus subtilis (Bs); [31]): 500 µg/mL (≈ 1610 µM); MIC (Trichoderma viride (Tv); [34]): 500 µg/mL (≈ 1610 µM); MIC (Candida albicans (Ca); [35]): 500 µg/mL (≈ 1610 µM); MIC (Escherichia coli (Ec); pH 8.2, nutrient agar, 30° C., 48 hours, read-out: Minimum Inhibitory Concentration, Ec): 250 µg/mL (≈ 803 µM)
N#CSCSc1nsnc1-c1ccc([N+](=O)[O-])cc1 [Example XXIX, 4-(4-Nitrophenyl)-3-thiocyanatomethylthio-1,2,5-thiadiazole] | 9 (≈ 29 µM) | 500 (≈ 1610 µM) | 500 (≈ 1610 µM) | > 500 | 9 (≈ 29 µM) | 500 (≈ 1610 µM) | > 500 | 500 (≈ 1610 µM) | > 500 | 500 (≈ 1610 µM) | 500 (≈ 1610 µM) | > 500 | 500 (≈ 1610 µM) | > 500 | > 500 | 500 (≈ 1610 µM) | 500 (≈ 1610 µM) | 500 (≈ 1610 µM) | 500 (≈ 1610 µM) | > 500 | MIC (Fusarium oxysporum (Fo); [32]): 9 µg/mL (≈ 29 µM); MIC (Aspergillus niger (An); [33]): 9 µg/mL (≈ 29 µM); MIC (Bacillus subtilis (Bs); [20]): 50 µg/mL (≈ 161 µM); MIC (Trichoderma viride (Tv); [34]): 9 µg/mL (≈ 29 µM); MIC (Candida albicans (Ca); [35]): 9 µg/mL (≈ 29 µM)
